The supplement of paper PMC10307832

Legend:
Experiment in all cases: relative viability (nuclei count vs DMSO), 5 days (fraction); higher = more cells survive
Shikonin + Olaparib = compound: CC(C)=CC[C@@H](O)C1=CC(=O)c2c(O)ccc(O)c2C1=O [Shikonin] + O=C(c1cc(Cc2n[nH]c(=O)c3ccccc23)ccc1F)N1CCN(C(=O)C2CC2)CC1 [Olaparib] (partner 8 µM)
How it was run: (§1)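 Five library-drug doses in √10 steps were combined with a fixed anchor-drug dose, or a single drug was given alone, by pin tool to lung cancer cell lines in 1536-well plates the day after seeding. Nuclei were stained and counted after 5 days. Relative viability is the nuclei count in treated wells over that in vehicle wells, taken as the median of duplicate plates.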

Shikonin + Luminespib = compound: CC(C)=CC[C@@H](O)C1=CC(=O)c2c(O)ccc(O)c2C1=O [Shikonin] + CCNC(=O)c1noc(-c2cc(C(C)C)c(O)cc2O)c1-c1ccc(CN2CCOCC2)cc1 [Luminespib] (partner 0.01 µM)
How it was run: as §1

[1] = compound: CC(C)N(CCCNC(=O)Nc1ccc(C(C)(C)C)cc1)C[C@H]1O[C@@H](n2ccc3c(N)ncnc32)[C@H](O)[C@@H]1O + C[C@]1(O)C[C@@H](c2nc(-c3ccc4ccc(-c5ccccc5)nc4c3)c3c(N)nccn32)C1 [Linsitinib] (partner 1 µM)
How it was run: as §1

[2] = compound: CC(C)N(CCCNC(=O)Nc1ccc(C(C)(C)C)cc1)C[C@H]1O[C@@H](n2ccc3c(N)ncnc32)[C@H](O)[C@@H]1O + Nc1ncn([C@H]2C[C@H](O)[C@@H](CO)O2)c(=O)n1 [Decitabine] (partner 2 µM)
How it was run: as §1

| Cell Line | relative viability (Shikonin + Olaparib; first compound 0.01 µM) | relative viability (Shikonin + Olaparib; first compound 0.1 µM) | relative viability (Shikonin + Olaparib; first compound 0.3162 µM) | relative viability (Shikonin + Olaparib; first compound 1 µM) | relative viability (Shikonin + Luminespib; first compound 0.01 µM) | relative viability (Shikonin + Luminespib; first compound 0.1 µM) | relative viability (Shikonin + Luminespib; first compound 0.3162 µM) | relative viability (Shikonin + Luminespib; first compound 1 µM) | relative viability ([1]; first compound 0.08 µM) | relative viability ([1]; first compound 0.253 µM) | relative viability ([1]; first compound 0.8 µM) | relative viability ([1]; first compound 2.53 µM) | relative viability ([1]; first compound 8 µM) | relative viability ([2]; first compound 0.08 µM) | relative viability ([2]; first compound 0.253 µM) | relative viability ([2]; first compound 0.8 µM) | relative viability ([2]; first compound 2.53 µM) | relative viability ([2]; first compound 8 µM) |
| --- | --- | --- | --- | --- | --- | --- | --- | --- | --- | --- | --- | --- | --- | --- | --- | --- | --- | --- |
| NCI-H358 | 0.622 | 0.619 | 0.539 | 0.219 | 0.467 | 0.369 | 0.246 | 0.334 | 0.775 | 0.814 | 0.786 | 0.823 | 0.668 | 0.233 | 0.187 | 0.212 | 0.214 | 0.189 |
| NCI-H441 | 0.647 | 0.637 | 0.626 | 0.531 | 0.349 | 0.339 | 0.371 | 0.323 | 0.565 | 0.557 | 0.602 | 0.611 | 0.636 | 0.278 | 0.251 |  | 0.218 | 0.252 |
| NCI-H460 | 0.584 | 0.615 | 0.515 | 0.39 | 0.0384 | 0.034 | 0.0299 | 0.0321 | 0.722 | 0.775 | 0.627 | 0.66 | 0.678 | 0.484 | 0.488 | 0.455 | 0.435 | 0.414 |
| NCI-H520 | 0.323 | 0.368 | 0.283 | 0.295 | 0.253 | 0.216 | 0.21 | 0.207 | 0.943 | 0.87 | 0.882 | 1 | 0.894 | 0.531 | 0.469 | 0.405 | 0.471 | 0.492 |
| NCI-H596 | 0.547 | 0.728 | 0.709 | 0.605 | 1.14 | 1.22 | 1.16 | 1.13 | 0.991 | 0.926 | 1.02 | 1.08 | 1.21 | 1.03 | 0.975 | 1.03 | 1.19 | 0.988 |
| NCI-H647 | 0.723 | 0.597 | 0.488 | 0.47 | 0.169 | 0.142 | 0.147 | 0.159 | 1.12 |  | 1.17 | 1.13 | 1.03 | 0.419 | 0.374 | 0.363 | 0.336 | 0.392 |
| NCI-H650 | 0.373 | 0.406 | 0.399 | 0.345 | 0.678 | 0.822 | 0.79 | 0.61 | 0.757 | 0.732 | 1.04 | 0.791 | 0.704 | 0.338 | 0.372 | 0.335 | 0.315 | 0.324 |
| NCI-H661 | 0.847 | 0.879 | 0.73 | 0.646 | 0.951 | 1.06 | 0.932 | 0.858 | 0.473 | 0.553 | 0.585 | 0.567 | 0.57 | 0.521 | 0.469 | 0.542 | 0.577 | 0.623 |
| NCI-H727 | 0.685 | 0.737 | 0.648 | 0.583 | 0.412 | 0.462 | 0.233 | 0.329 | 0.333 | 0.281 | 0.286 | 0.359 | 0.209 | 0.907 | 0.687 | 0.885 | 0.905 | 0.973 |
| NCI-H838 | 0.798 | 0.845 | 0.865 | 0.667 | 0.369 | 0.237 | 0.317 | 0.258 | 0.938 | 0.952 | 0.99 | 1.01 | 0.875 | 0.454 | 0.431 | 0.491 | 0.483 | 0.511 |
| NCI-H1355 | 0.811 | 0.812 | 0.786 | 0.776 | 0.724 | 0.795 | 0.79 | 0.714 | 0.751 | 0.768 |  | 0.859 | 0.843 | 0.338 | 0.342 | 0.414 | 0.335 | 0.342 |
| NCI-H1395 | 0.407 | 0.455 | 0.416 | 0.427 | 0.672 | 0.793 | 0.744 | 0.655 | 1.09 | 0.881 |  | 1.07 | 0.987 | 0.711 | 0.704 | 0.76 | 0.748 | 0.662 |
| NCI-H1437 | 0.661 | 0.678 | 0.601 | 0.521 | 1.17 | 1.18 | 1.1 | 1.1 | 0.974 | 1.03 | 1.16 | 1.05 | 0.936 | 0.563 | 0.569 | 0.619 | 0.553 | 0.592 |
| NCI-H1651 | 0.173 | 0.188 | 0.161 | 0.178 | 0.914 | 0.821 | 0.714 | 0.984 | 0.99 | 0.983 | 0.965 | 1.11 | 0.987 | 0.611 | 0.534 | 0.589 | 0.611 | 0.539 |
| NCI-H1666 | 0.748 | 0.732 | 0.773 | 0.699 | 0.986 | 1.08 | 0.932 | 1.04 | 0.794 | 0.925 | 0.859 | 0.85 | 0.781 | 0.722 | 0.697 | 0.808 | 0.832 | 0.673 |
| NCI-H1734 | 0.697 | 0.655 | 0.695 | 0.632 | 0.173 | 0.199 | 0.216 | 0.131 | 0.833 | 0.862 | 0.88 | 0.901 | 0.874 | 0.454 | 0.495 | 0.463 | 0.545 | 0.484 |
| NCI-H1755 | 0.794 | 0.909 | 0.837 | 0.792 | 0.428 | 0.439 | 0.576 | 0.378 | 1.01 | 0.997 | 0.894 | 0.916 | 0.836 | 0.787 | 0.701 | 0.666 | 0.668 | 0.714 |
| NCI-H1792 | 0.263 | 0.314 | 0.463 | 0.427 | 0.554 | 0.361 | 0.371 | 0.544 | 0.534 | 0.503 | 0.393 | 0.52 | 0.535 | 0.527 |  | 0.56 | 0.529 | 0.607 |
